Our source for the IC50 and inhibition values is ChEMBL document CHEMBL1641506, “Design, synthesis and evaluation of novel tacrine-multialkoxybenzene hybrids as dual inhibitors for cholinesterases and amyloid beta aggregation” (Bioorg Med Chem, 2011).

One assay has as its target Butyrylcholinesterase (Equus caballus, UniProt Q9N1N9).
For the next assay, the target named is Acetylcholinesterase (Electrophorus electricus, UniProt O42275).
The nature of assay [1]: Inhibition of amyloid beta (1-42) self-mediated aggregation at 20 uM by thioflavin T fluorescence method.

The structures appear in SMILES notation. pIC50: −log10 of the molar value.

Chain of Acetylcholinesterase (O42275 whole entry): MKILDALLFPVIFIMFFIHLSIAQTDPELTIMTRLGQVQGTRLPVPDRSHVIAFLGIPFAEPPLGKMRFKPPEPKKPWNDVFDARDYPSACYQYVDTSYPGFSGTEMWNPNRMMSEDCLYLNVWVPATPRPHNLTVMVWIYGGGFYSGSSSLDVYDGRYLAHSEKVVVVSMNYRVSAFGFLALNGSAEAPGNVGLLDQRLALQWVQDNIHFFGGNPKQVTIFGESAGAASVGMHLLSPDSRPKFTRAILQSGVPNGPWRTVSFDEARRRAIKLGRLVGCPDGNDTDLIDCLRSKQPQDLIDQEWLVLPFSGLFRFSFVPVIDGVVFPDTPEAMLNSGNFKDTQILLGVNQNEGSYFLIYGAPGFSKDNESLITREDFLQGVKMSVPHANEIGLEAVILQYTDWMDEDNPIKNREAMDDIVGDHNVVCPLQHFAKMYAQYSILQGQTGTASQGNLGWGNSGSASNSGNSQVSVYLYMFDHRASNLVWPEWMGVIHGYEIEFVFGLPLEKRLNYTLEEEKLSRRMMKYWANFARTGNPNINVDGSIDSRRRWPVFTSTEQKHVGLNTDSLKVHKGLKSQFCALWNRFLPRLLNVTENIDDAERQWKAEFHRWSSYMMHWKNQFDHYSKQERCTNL
Chain of Butyrylcholinesterase (Q9N1N9 whole entry): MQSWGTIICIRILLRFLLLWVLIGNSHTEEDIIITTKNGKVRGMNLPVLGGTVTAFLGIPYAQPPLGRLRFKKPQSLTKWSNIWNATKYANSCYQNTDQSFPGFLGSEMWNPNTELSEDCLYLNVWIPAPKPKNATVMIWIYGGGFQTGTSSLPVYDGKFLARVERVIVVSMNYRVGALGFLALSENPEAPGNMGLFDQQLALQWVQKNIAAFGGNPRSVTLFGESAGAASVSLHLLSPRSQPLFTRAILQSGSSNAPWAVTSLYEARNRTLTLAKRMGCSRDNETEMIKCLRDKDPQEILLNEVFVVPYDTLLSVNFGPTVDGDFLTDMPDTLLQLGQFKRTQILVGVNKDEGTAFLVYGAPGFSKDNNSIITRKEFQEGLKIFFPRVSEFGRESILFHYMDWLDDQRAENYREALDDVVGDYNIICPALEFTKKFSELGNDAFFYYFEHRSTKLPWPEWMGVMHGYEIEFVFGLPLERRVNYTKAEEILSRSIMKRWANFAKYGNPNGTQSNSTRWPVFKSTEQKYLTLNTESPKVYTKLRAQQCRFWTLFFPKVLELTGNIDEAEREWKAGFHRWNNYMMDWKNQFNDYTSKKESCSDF
Description for Acetylcholinesterase: Inhibition of electric eel AChE by Ellman's method
Description for Butyrylcholinesterase: Inhibition of equine BChE by Ellman's method

On to `COc1cc(CNCCCCCCCCNc2c3c(nc4ccccc24)CCCC3)cc2c1OCO2`, for which the pIC50 against Butyrylcholinesterase and against Acetylcholinesterase was 8.10 in each case. This molecule had an inhibition in assay [1] of 65.2%.
`COc1cc(CNCCCCCCCNc2c3c(nc4ccccc24)CCCC3)cc(OC)c1OC`: the pIC50 on Butyrylcholinesterase was 8.45; on Acetylcholinesterase, 7.76.
With `COc1cc(CNCCCCCCCCCNc2c3c(nc4ccccc24)CCCC3)cc2c1OCO2`, the pIC50 against Butyrylcholinesterase was 7.94; on Acetylcholinesterase it was 7.73. For the same molecule, in assay [1], the inhibition worked out at 68.5%.
As to `COc1cc(CNCCCCCCCNc2c3c(nc4ccccc24)CCCC3)cc2c1OCO2`, the pIC50 is 8.01 on Butyrylcholinesterase and 7.73 on Acetylcholinesterase. In assay [1], this molecule came in with an inhibition of 65%.
As to `COc1cc(CNCCCCCCNc2c3c(nc4ccccc24)CCCC3)cc(OC)c1OC`, the figures for the pIC50 against Butyrylcholinesterase and against Acetylcholinesterase were 8.59 and 7.65, respectively.
On to `COc1ccc(CNCCCCCCCCNc2c3c(nc4ccccc24)CCCC3)cc1OC`, for which the values for the pIC50 against Butyrylcholinesterase and against Acetylcholinesterase were 8.25 and 7.95, respectively.
Turning to `COc1cc(CNCCCCCCNc2c3c(nc4ccccc24)CCCC3)cc2c1OCO2`, the pIC50 against Butyrylcholinesterase is 8.28; against Acetylcholinesterase, 7.69. This molecule also gave an inhibition in assay [1] of 67.1%.
As for `COc1cc(CNCCCCNc2c3c(nc4ccccc24)CCCC3)cc2c1OCO2`, the pIC50 is 7.33 at Butyrylcholinesterase and 6.95 against Acetylcholinesterase. This molecule also returned an inhibition in assay [1] of 63.8%.
With `COc1cc(CNCCCCCCCCCNc2c3c(nc4ccccc24)CCCC3)cc(OC)c1OC`, the pIC50 was 8.33 against Butyrylcholinesterase and 7.69 against Acetylcholinesterase.
As for `COc1ccc(CNCCCCCCCNc2c3c(nc4ccccc24)CCCC3)cc1OC`, the results for the pIC50 against Butyrylcholinesterase and at Acetylcholinesterase were 8.26 and 7.62, respectively.
In the case of `COc1cc(CNCCCCCNc2c3c(nc4ccccc24)CCCC3)cc2c1OCO2`, the values for the pIC50 at Butyrylcholinesterase and against Acetylcholinesterase were 7.53 and 7.10, respectively. For the same molecule, in assay [1], the inhibition stood at 63.1%.
`COc1ccc(CNCCCCCCCCCNc2c3c(nc4ccccc24)CCCC3)cc1OC`: the values for the pIC50 against Butyrylcholinesterase and against Acetylcholinesterase were 8.25 and 7.60, respectively.
With `COc1ccc(CNCCCCCCNc2c3c(nc4ccccc24)CCCC3)cc1OC`, the pIC50 on Butyrylcholinesterase is 8.57; at Acetylcholinesterase, 7.51.
With `COc1cc(CNCCCCCCCCNc2c3c(nc4ccccc24)CCCC3)cc(OC)c1OC`, the negative-log IC50 (pIC50) on Butyrylcholinesterase was 8.47; against Acetylcholinesterase, 8.01.
